Key:
Assay type in all cases: in vivo
[1] = system: human subjects (perception of dyspnoea); test: Borg score for dyspnoea before and after inhalation challenge; set-up: key to ΔBorg (change in Borg score before and after challenge): Borg score after minus before challenge; 0–10 scale
Excerpt: (§1) The clinical study described in Examples 2-4 was randomized, double blind, crossover, and controlled. Each subject attended the laboratory on three occasions. Procedures on the initial screening visit included obtaining information about the study and a number of investigations in the following order: medical history, lung function, reversibility and skin prick testing. At visit 2 and 3, separated by 2-7 days, the subjects were subjected to either an ATP or AMP challenge in a randomized fashion such that, by the end of the study, each patient had been tested with both compounds. Before, immediately after, and 30 minutes after the challenge, lung function and Borg score for dyspnoea were determined, and symptoms other than dyspnoea were recorded.
The modified Borg scale used to quantitate dyspnoea in the clinical study described in Examples 2-4 was a category scale in which words describing degrees of breathlessness were anchored to numbers between 0 and 10. The subjects were asked to select a number whose corresponding words most appropriately described their perception of breathlessness. The change in dyspnoea was expressed as ΔBorg, which was the difference in Borg score before and after the challenge [Rutgers et al. (2000) Eur. Respir. J. 16:486-490; Burdon et al. (1982) Am. Rev. Respir. Dis. 126:825-828]. Terms and associated numbers used in assessing Borg score were as follows: 0, “nothing at all”; 0.5, “very, very slight”; 1, “very slight”; 2, “slight”; 3, “moderate”; 4, “somewhat severe”; 5, “severe”; 7, “very severe”; 9, “very, very severe (almost maximal)”; and 10, “maximal” [Burdon et al. (1982)].
(§2) For the tests described in Examples 2-4, ATP and AMP (Sigma, Gillingham, Dorset, England) were dissolved freshly in normal saline solution to produce a range of doubling concentrations from 0.227-929 umol/ml for ATP and from 0.138-1152 umol/ml for AMP and immediately used for bronchial challenge. The solutions were administered using a breath-activated dosimeter (Mefar, Bovezzo, Italy) with an output of 10 ul per inhalation [Prieto et al. (2003) Chest 123:993-997]. The subjects, while wearing a nose clip, inhaled (via a mouthpiece) five breaths of normal saline, followed by sequential doubling concentrations of either ATP or AMP from functional residual capacity to total lung capacity. FEV1 was measured from two minutes after the fifth inhalation of normal saline until there was a fall in FEV1 of ≧20% of its value recorded after saline inhalation or until maximal concentration of either ATP or AMP was inhaled. The provocative dose causing a 20% decrease in FEV1 (PD20) was calculated by interpolation of the logarithmic dose response curve.

vagal C fiber = test: Vagal activation experiments in dogs: action potentials in vagal C fibers; conditions: anesthetized dog, rapid bolus; simultaneous recording with RAR-containing fiber
Protocol: The experiments described in Example 5 were performed essentially as described in Pelleg et al. [(1996) J. Physiol. 490(1):265-275] and U.S. Pat. No. 5,874,420, both of which are incorporated herein by reference in their entirety. In brief, they were performed on anesthetized (sodium pentobarbitone, 30 mg kg^−1 plus 3 mg kg^−1 h^−1, intravenous) dogs artificially ventilated with room air using a respirator. Arterial blood pH, PO2, PCO2, body temperature were maintained as described in U.S. Pat. No. 5,874,420. A peripheral vein was cannulated for the administration of physiological saline solution and maintenance doses of anesthetic. Catheters were introduced via the femoral vein and left atrial appendage and positioned in the right atrium and left atrium for the administration of test solutions. The chest was opened by a longitudinal sternotomy. The right cervical vagosympathetic trunk was exposed by a midcervical longitudinal section of the skin and careful dissection of neck muscles and connective tissues. The edges of the cut skin were elevated and secured to create a trough which was filled with warm (about 37° C.) mineral oil. A section of the vagosympathetic trunk was placed on a small plate of black Perspex™ and fine branches were separated from the main bundle by careful dissection using microsurgical tools and a dissecting microscope (Model F212, Jenopik Jena, GmbH, Germany).
Extracellular neural action potentials were recorded using a custom-made bipolar electrode that contained two platinum-iridium wires (1.25 cm×0.0125 cm) connected to a high-impedence first-stage differential amplifier (model AC8331, CW, Inc., Ardmore, Pa.) via a shielded cable. The output of the first-stage amplifier was fed into a second-stage differential amplifier (model BMA-831/C, CWE, Inc.). Isolated fibers were laid on the pair of platinum-iridium wires. Vagal C fibers with chemosensitive endings have a sparse irregular discharge which is not associated with cardiac or respiratory cycles. […]
ATP (3 umole kg^−1) and capsaicin (10 ug kg^−1) were administered as a rapid bolus into the right atrium (5 ml test solution+5 ml physiological saline flush). α,βmATP and β,γmATP were given as one low dose only (0.75 umol kg^−1) to avoid systemic side effects. […] To exclude involvement of baroreceptors in the recorded neural activity, the latter was monitored before and after a bolus of nitroglycerine (1 mg; intravenous). […]

[2] = system: human subjects (cough, throat irritation, sputum); test: Symptoms other than dyspnoea recorded after inhalation challenge; conditions: all subjects
Excerpt: as §1, §2

**Q.** With `Nc1ncnc2c1ncn2[C@@H]1O[C@H](COP(=O)(O)OP(=O)(O)OP(=O)(O)O)[C@@H](O)[C@H]1O` [ATP, adenosine 5′-triphosphate] as the compound, how does the “ΔBorg (change in Borg score before and after challenge)” value ([1]; COPD) read?
**A.** 2.6

**Q.** And the “Borg score after challenge (at PD20)” value ([1]; COPD patients)?
**A.** 2.7

**Q.** And the “Borg score after challenge” value ([1]; healthy smokers)?
**A.** 1.3

**Q.** What about the “Borg score after challenge (at PD20)” value ([1]; patients with asthma) of the same compound?
**A.** 3.3

**Q.** What about the “ΔBorg (change in Borg score before and after challenge)” value ([1]; patients with asthma) of the same compound?
**A.** 3.2

**Q.** And the “Borg score after challenge” value ([1]; smokers at risk)?
**A.** 1.9

**Q.** And the “effect on action potentials of C fibers” value (vagal C fiber)?
**A.** stimulated both the C fibers and RAR-containing fibers

**Q.** What about the “subjects who coughed after challenge” value [2] of the same compound?
**A.** 90%

**Q.** What about the “subjects who had sputum after challenge” value [2] of the same compound?
**A.** 28%

**Q.** And the “subjects who had throat irritation after challenge” value [2]?
**A.** 75%

From patent US20060029548A1, “Methods of diagnosing, monitoring and treating pulmonary diseases” (priority 2004, published 2006)
